Measurements reported in patent publication US20170189357A1, “METHODS OF LIMITING MORBIDITY IN HEMOGLOBINOPATHIES” (DUKE UNIVERSITY, priority 2014, published 2017).
Like-named read-outs stand apart in the source and are kept apart here.

Legend:
SSRBCs = test: SSRBC adhesion to HUVECs after PTx/CTx treatment, with or without tyrosine kinase inhibitors, intermittent flow; format: cell-based, human; conditions: 1 μM inhibitor before 1 μg/ml PTx; for inhibition of the effect of PTx on sickle cell adhesion: shear stress 2 dynes/cm^2, p<0.01
Protocol: FIG. 9 is a set of figures showing that activation of Gas protein increased SSRBC adhesion to endothelial cells via activation of tyrosine kinases. FIG. 9A is a schematic depiction of GPCR pathways along with inhibitors and stimuli of the kinases of these pathways regulating SSRBC adhesion. FIGS. 9B-E are a set of graphs showing adherence of RBCs which were sham-treated, or treated with Pertussis toxin (PTx) (0.5, 1 or 2 μg/ml) (FIGS. 9B-D), 1 μg/ml Cholera toxin (CTx) (FIG. 9B) or phenylarsine oxide (0.1, 10, 20, 40 and 80 μM) (FIG. 9E), or pretreated with 1 μM PP1, 1 μM PP2 or 1 μM piceatannol prior to treatment with 1 μg/ml PTx (FIG. 9C and FIG. 9D). Treated RBCs were tested for adhesion to HUVECs in intermittent flow conditions at different shear stresses. Data are presented as % adherent RBCs (FIG. 9B) or SSRBCs (FIG. 9C-FIG. 9E) at a shear stress of 2 dynes/cm^2. Each graph is representative of 3 different experiments. Error bars show standard error of the mean (SEM). *: p<0.001 compared to sham-treated RBCs; **: p<0.01 compared to PTx-treated RBCs.
Vaso-occlusion is associated with various types of physiological stress. β2-adrenergic receptors (β2AR) stimulation with catacholamines employs both Gas and &Gai (or Ga0) pathways. We first determined the Ga, Gas and/or Gai, in sickle cell regulating tyrosine kinase activation-mediated sickle cell adhesion to endothelial cells (FIG. 9A). Sickle cells adhered to some degree to endothelial cells under intermittent flow conditions at a shear stress of 2 dynes/cm^2. (FIGS. 9B-D). […] The selective Src-family kinase inhibitors, PP1 and PP2 (FIG. 9A), and the non-receptor tyrosine kinase p72^Syk inhibitor, piceatannol (FIG. 9A), inhibited the effect of PTx on sickle cell adhesion by 67±2.7%, 64±1.7% and 60 ±5.5%, respectively (p<0.01) (FIGS. 9C and 9D).

p60-c-Src [1] = test: p60-c-Src phosphorylation in SSRBCs (Western blot of membrane ghosts); format: cell-based, human; conditions: 1 μM inhibitor before 1 μg/ml PTx; p<0.0001
Text: (§1) FIG. 10 is a set of figures showing inhibition of Gai protein increased phosphorylation of p72^syk and p60-c-Src tyrosine kinases in intact SSRBCs. FIG. 10A-FIG. 10G show the kinase expression results for twenty μg of membrane protein ghosts (SSRBC ghosts, n=7, SS1, SS2, SS3, SS4, SS5, SS6 and SS7; and normal RBC ghosts, n=7, AA1, AA2, AA3AA4, AA5, AA6 and AA7) were used per lane. FIG. 10A-FIG. 10D show Western blots and corresponding graphs showing the kinase expression results of protein ghosts which were stained with antibodies against phosphorylated p60-c-Src [p-p60-c-Src (SS1, SS2, SS3, SS4; and AA1, AA2, AA3, AA4)] and p60-c-Src [p60-c-Src (SS1, SS2, SS3, SS4, SS5, SS6, SS7, and AA1, AA2, AA3, AA4, AA5, AA6, AA7)]; and phosphorylated p72^syk [p-Syk (SS1, SS2, SS3, SS4; and AA1, AA2, AA3, AA4)] and p72^syk[Syk (SS1, SS2, SS3, SS4, SS5, SS6, SS7; and AA1, AA2, AA3, AA4, AA5, AA6, AA7)]. Antibody against glycophorin C was used as a loading control. FIG. 10C and FIG. 10D show the quantitative analysis of the data presented as relative kinase expression [SSRBCs (n=7) and AARBCs (n=7)], and as relative kinase phosphorylation [SSRBCs (n=4) and AARBCs (n=4)]. […] Quantitative analysis of the data (normalized according to total kinase expression) is presented as fold change in p60-c-Src phosphorylation (FIG. 10E and FIG. 10F) and Syk phosphorylation (FIG. 10G). […]

p60-c-Src [2] = test: p60-c-Src phosphorylation in normal RBCs (Western blot); format: cell-based, human; conditions: 1 μM PP1; normal RBCs by context (FIG. 10F)
Text: as §1

sickle RBCs [3] = conditions: 20 nM epinephrine, non-activated HUVECs
ERK [4] = conditions: 20 nM epinephrine; n=19; p<0.05
ERK [5] = test: ERK phosphorylation in sickle RBCs exposed to hypoxia (Western blot of membrane ghosts); format: cell-based, human; conditions: hypoxia 8% oxygen 2 hours
sickle RBCs [6] = test: Sickle RBC adhesion to non-activated and TNFα-activated HUVECs, intermittent flow; format: cell-based, human; conditions: U0126 10 μM; TNFα-activated HUVECs; shear stress 2 dynes/cm^2; p<0.05
neutrophils (PMNs) = conditions: sickle RBCs treated with 10 μM U0126, then epinephrine; co-incubated with PMNs
human sickle red cell = conditions: systemic administration; cited from earlier work
sickle cells = test: Hypoxia-induced sickle cell adhesion to microvascular endothelial cells, intermittent flow; format: cell-based, human; conditions: hypoxia 8% O2 2 h, then RDEA119; shear stress 1-2 dynes/cm^2
Protocol: Sickle cells were exposed to room air (sham) or hypoxia (H) (8% O2) for 2 h followed by treatment with RDEA119 MEK inhibitor, then washed. SSRBC adhesion to microvascular endothelial cells was tested in intermittent flow condition assays, and results are presented as % adherent SSRBCs at a shear stress of 1-2 dynes/cm^2. […] Error bars show SEM of 3 different experiments.
One of the major pathophysiologic processes in SCD is vasoocclusion in response to hypoxia.

human sickle RBCs = test: Human sickle RBC adhesion and vaso-occlusion in TNFα-pretreated nude mice, intravital microscopy; conditions: sickle RBCs treated ex vivo
Protocol: FIG. 5 is a set of photographs and graphs showing that ERK in sickle RBCs promotes vaso-occlusion in nude mice in vivo. FIG. 5A, FIG. 5B and FIG. 5C are a set of photographs showing nude mice implanted with dorsal skin-fold window chambers after injection with murine TNFα. Four hours later, intravital microscopic observations of post-capillary venules and arterioles using 10× and 20× magnifications were conducted through the window chamber immediately after infusion of fluorescently labeled human sickle RBCs (n=5) that were sham-treated (FIG. 5A; panels 1, 2, 3 and 4) or treated with the MEK inhibitor RDEA119 (FIG. 5B panels 1, 2 and 3), or human normal (AA) RBCs (n=3) sham-treated (FIG. 5C; two panels on the left) or RDEA119-treated (FIG. 5C; 2 panels on the right). Vessels without adherent cells appear gray, due to the rapidly moving of fluorescence labeled RBCs. Adhesion of human sickle RBCs in enflamed vessels and vaso-occlusion are indicated with arrows and appear as white spots in the vessels. […] Scale bar=50 μm. FIG. 5D is a graph showing quantification of the fluorescence intensity of video frames of vessel and arteriole segments used to quantify adhesion in venules and arterioles of animals occupied by sickle RBCs (n=5 for each treatment). Adhesion of fluorescently labeled sham-treated sickle RBCs (sham-treated SS) and RDEA119-treated sickle RBCs (RDEA119-treated SS) in all vessels and arterioles recorded presented as fluorescence intensity [fluorescence unit (FU)] of adherent sickle RBCs. FIG. 5E-FIG. 5G are graphs showing the values of at least 180 segments of vessels and arterioles analyzed and averaged among groups of animals (n=5) to represent percentage of vessels occupied by adherent sickle RBCs (FIG. 5E); percentage of vessels with normal blood flow, slow blood flow and no blood flow (FIG. 5F), and percentage of normal flowing vessels (FIG. 5G). Error bars show SEM of 5 different experiments for each treatment condition, *: p<0.001 compared to sham-treated sickle RBCs regardless of the vessel diameter within the ranges specified for D, E and G. […]

human normal (AA) RBCs = test: Normal human RBC adhesion in TNFα-pretreated nude mice, intravital microscopy; conditions: normal human RBCs treated ex vivo
Text: FIG. 5 is a set of photographs and graphs showing that ERK in sickle RBCs promotes vaso-occlusion in nude mice in vivo. FIG. 5A, FIG. 5B and FIG. 5C are a set of photographs showing nude mice implanted with dorsal skin-fold window chambers after injection with murine TNFα. […] Vessels without adherent cells appear gray, due to the rapidly moving of fluorescence labeled RBCs. […] FIG. 5D is a graph showing quantification of the fluorescence intensity of video frames of vessel and arteriole segments used to quantify adhesion in venules and arterioles of animals occupied by sickle RBCs (n=5 for each treatment). Adhesion of fluorescently labeled sham-treated sickle RBCs (sham-treated SS) and RDEA119-treated sickle RBCs (RDEA119-treated SS) in all vessels and arterioles recorded presented as fluorescence intensity [fluorescence unit (FU)] of adherent sickle RBCs. FIG. 5E-FIG. 5G are graphs showing the values of at least 180 segments of vessels and arterioles analyzed and averaged among groups of animals (n=5) to represent percentage of vessels occupied by adherent sickle RBCs (FIG. 5E); percentage of vessels with normal blood flow, slow blood flow and no blood flow (FIG. 5F), and percentage of normal flowing vessels (FIG. 5G). […]

leukocytes = test: Leukocyte adhesion in transgenic sickle cell mice after TNFα challenge; conditions: 0.025, 0.05 and 0.1 mg/kg; versus vehicle
murine sickle RBCs = conditions: for inhibition of murine sickle RBC adhesion: versus vehicle, p<0.0001

Cc1ccc(-c2nn(C(C)(C)C)c3ncnc(N)c23)cc1 [PP1]
inhibition of the effect of PTx on sickle cell adhesion (SSRBCs): 67±2.7%
PTx-increased p60-c-Src phosphorylation in sickle cells (p60-c-Src [1]): to levels below baseline phosphorylation
phosphorylation of p60-c-Src, inhibitor effect (p60-c-Src [2]): inhibited

CNC[C@H](O)c1ccc(O)c(O)c1 [Epinephrine, epinephrine]
sickle cell adhesion to normal endothelial cells (sickle RBCs [3]; shear stress 2 dynes/cm^2): increased sickle cell adhesion to normal endothelial cells
phosphorylation of sickle cell ERK (ERK [4]): increased phosphorylation of sickle cell ERK

O=C1Nc2ccc(I)cc2/C1=C/c1cc(Br)c(O)c(Br)c1 [GW5074]
effect of hypoxia on ERK phosphorylation (ERK [5]): decreased the effect of hypoxia on ERK phosphorylation

CC(C)=CCCC(C)=CCCC(C)=CCSc1ccccc1C(=O)O [farnesylthiosalicylic acid]
effect of hypoxia on ERK phosphorylation (ERK [5]): decreased the effect of hypoxia on ERK phosphorylation

CC(C)(C)n1nc(-c2ccc(Cl)cc2)c2c(N)ncnc21 [PP2]
inhibition of the effect of PTx on sickle cell adhesion (SSRBCs): 64±1.7%
PTx-increased p60-c-Src phosphorylation in sickle cells (p60-c-Src [1]): to levels below baseline phosphorylation

N#CC(=C(/N)Sc1ccccc1N)/C(C#N)=C(\N)Sc1ccccc1N [U0126]
sickle cell adhesion to TNFα-activated endothelial cells (sickle RBCs [6]): reduced sickle cell adhesion
effect of hypoxia on ERK phosphorylation (ERK [5]): decreased the effect of hypoxia on ERK phosphorylation
epinephrine-activated sickle cell adhesion (sickle RBCs [3]; U0126 10 μM): inhibited activated sickle cell adhesion
sickle cell-induced PMN adhesion to endothelial cells (neutrophils (PMNs)): decreased sickle cell-induced PMN adhesion

CC(C)NCC(O)COc1cccc2ccccc12 (centres unmarked) [propranolol]
human sickle red cell adhesion and associated vasoocclusion in mice (human sickle red cell): inhibited human sickle red cell adhesion

COc1cc(F)c(F)c(Nc2ccc(I)cc2F)c1NS(=O)(=O)C1(C[C@H](O)CO)CC1 [RDEA119]
effect of hypoxia on sickle cell adhesion to endothelial cells (sickle cells): almost completely inhibited
vaso-occlusion by treated sickle cells (human sickle RBCs; nude mice pretreated with TNFα): no visible vase-occlusion
reduction of SSRBC adhesion compared to sham-treated SSRBCs (human sickle RBCs; nude mice pretreated with TNFα, n=5, p<0.0001): 88%
vessels and arterioles with normal blood flow (human sickle RBCs; nude mice, versus 50±5.5% with sham-treated cells): 86±3.3%
adherence of normal human RBCs in enflamed vessels (human normal (AA) RBCs): no real adherence
time to abrogation of leukocyte adhesion after administration (leukocytes): ≤ 10 min
inhibition of murine sickle RBC adhesion (murine sickle RBCs; 0.025 mg/kg infused 120 min after TNFα): 76%
inhibition of murine sickle RBC adhesion (murine sickle RBCs; 0.05 mg/kg infused 120 min after TNFα): 99%
inhibition of murine sickle RBC adhesion (murine sickle RBCs; 0.1 mg/kg infused 120 min after TNFα): 98%
time to reversal of murine sickle RBC adhesion after drug administration (murine sickle RBCs; lowest dose 0.025 mg/kg, effect sustained over time): ≤ 10 min
vessels with restored blood flow (murine sickle RBCs; p<0.05 for each RDEA119 dose (0.025, 0.05, 0.1 mg/kg)): 57%

Oc1cc(O)cc(/C=C/c2ccc(O)c(O)c2)c1 [piceatannol]
inhibition at 1 µM (SSRBCs; Homo sapiens, HUVEC, shear stress 2 dynes/cm^2, p<0.01, read-out: inhibition of the effect of PTx on sickle cell adhesion): 60 ± 5.5%
